Data on 48 compounds can be found in patent US9765068B2, “PRMT5 inhibitors and uses thereof” (Epizyme, Inc., priority 2012, dated 2017).

Sequence of PRMT5/MEP50 (O14744 other isoform, or with tags, fused parts or gaps): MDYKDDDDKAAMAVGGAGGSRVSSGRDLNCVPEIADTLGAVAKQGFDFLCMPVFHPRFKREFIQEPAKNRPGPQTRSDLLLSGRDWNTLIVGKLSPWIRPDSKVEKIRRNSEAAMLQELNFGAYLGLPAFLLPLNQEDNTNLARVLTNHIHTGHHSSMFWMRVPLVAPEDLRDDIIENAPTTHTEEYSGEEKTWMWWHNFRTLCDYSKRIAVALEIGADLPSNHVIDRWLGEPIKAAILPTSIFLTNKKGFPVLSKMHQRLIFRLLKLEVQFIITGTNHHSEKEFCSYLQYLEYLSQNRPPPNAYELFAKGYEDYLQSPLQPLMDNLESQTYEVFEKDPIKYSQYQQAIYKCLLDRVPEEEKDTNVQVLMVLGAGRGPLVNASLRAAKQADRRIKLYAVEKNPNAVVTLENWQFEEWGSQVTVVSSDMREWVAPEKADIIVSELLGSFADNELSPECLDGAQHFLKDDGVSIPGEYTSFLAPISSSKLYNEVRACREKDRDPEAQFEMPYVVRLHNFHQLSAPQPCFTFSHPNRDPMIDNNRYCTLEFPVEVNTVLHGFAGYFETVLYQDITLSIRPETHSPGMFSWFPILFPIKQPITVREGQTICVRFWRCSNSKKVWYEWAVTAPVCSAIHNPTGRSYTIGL
Sequence of PRMT5/MEP50 (Q9BQA1 other isoform, or with tags, fused parts or gaps partner): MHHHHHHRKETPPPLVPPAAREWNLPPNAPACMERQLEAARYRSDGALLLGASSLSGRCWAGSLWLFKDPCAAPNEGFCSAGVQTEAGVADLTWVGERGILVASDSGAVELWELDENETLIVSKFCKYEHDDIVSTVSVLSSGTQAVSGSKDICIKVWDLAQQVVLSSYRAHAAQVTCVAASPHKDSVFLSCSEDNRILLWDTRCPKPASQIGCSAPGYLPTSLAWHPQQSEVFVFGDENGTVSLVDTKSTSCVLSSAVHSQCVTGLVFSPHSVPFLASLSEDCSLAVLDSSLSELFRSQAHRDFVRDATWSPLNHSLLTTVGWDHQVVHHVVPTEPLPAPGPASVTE

The target of this experiment is PRMT5/MEP50 (Homo sapiens (Human), UniProt O14744). The experiment in a line: PRMT5 Biochemical Assay (PRMT5/MEP50 enzyme assay on peptide substrate, 3H-SAM Flashplate). The conditions noted are these: PRMT5/MEP50 4 nM, 3H-SAM 75 nM, peptide 40 nM. The text has this:
General Materials. S-adenosylmethionine (SAM), S-adenosylhomocysteine (SAH), bicine, KCl, Tween20, dimethylsulfoxide (DMSO), bovine skin gelatin (BSG), and Tris(2-carboxyethyl)phosphine hydrochloride solution (TCEP) were purchased from Sigma-Aldrich at the highest level of purity possible. ^3H-SAM was purchase from American Radiolabeled Chemicals with a specific activity of 80 Ci/mmol. 384-well streptavidin Flashplates were purchased from PerkinElmer.
Substrates. Peptide representative of human histone H4 residues 1-15 was synthesized with a C-terminal linker-affinity tag motif and a C-terminal amide cap by 21st Century Biochemicals. […] The sequence was Ac-[…][K-Biot]-amide (SEQ ID NO.:3).
Full-length human MEP50 (NM_024102) clone was amplified from a human testis cDNA library incorporating a 5′ sequence encoding a 6-histidine tag (MHHHHHH) (SEQ ID NO.:5) fused directly to Arg 2 of MEP50. The amplified genes were sublconed into pENTR/D/TEV (Life Technologies) and subsequently transferred by Gateway™ attL×attR recombination to pDEST8 baculvirus expression vector (Life Technologies).
Protein Expression. Recombinant baculovirus and Baculovirus-Infected Insect Cells (BIIC) were generated according to Bac-to-Bac kit instructions (Life Technologies) and Wasilko, 2006, respectively. Protein over-expression was accomplished by infecting exponentially growing Spodoptera frugiperda (SF9) cell culture at 1.2×10^6 cell/ml with a 5000 fold dilution of BIIC stock. Infections were carried out at 27° C. for 72 hours, harvested by centrifugation, and stored at −80° C. for purification.
Protein Purification. […] Flag-PRMT5/6His-MeP50 was eluted with 300 mM Imidazole in the same buffer. […] Reference: Wasilko, D. J. and S. E. Lee: “TIPS: titerless infected-cells preservation and scale-up” Bioprocess J., 5 (2006), pp. 29-32.
General Procedure for PRMT5/MEP50 Enzyme Assays on Peptide Substrates.
The assays were all performed in a buffer consisting of 20 mM Bicine (pH=7.6), 1 mM TCEP, 0.005% BSG, and 0.002% Tween20, prepared on the day of use. Compounds in 100% DMSO (1 ul) were spotted into a polypropylene 384-well V-bottom plates (Greiner) using a Platemate Plus outfitted with a 384-channel head (Thermo Scientific). DMSO (1 ul) was added to Columns 11, 12, 23, 24, rows A-H for the maximum signal control and 1 ul of SAH, a known product and inhibitor of PRMT5/MEP50, was added to columns 11, 12, 23, 24, rows I-P for the minimum signal control. A cocktail (40 ul) containing the PRMT5/MEP50 enzyme and the peptide was added by Multidrop Combi (Thermo-Fisher). The compounds were allowed to incubate with PRMT5/MEP50 for 30 min at 25 degrees Celsius, then a cocktail (10 ul) containing ^3H-SAM was added to initiate the reaction (final volume=51 ul). The final concentrations of the components were as follows: PRMT5/MEP50 was 4 nM, ^3H-SAM was 75 nM, peptide was 40 nM, SAH in the minimum signal control wells was 100 uM, and the DMSO concentration was 1%. The assays were stopped by the addition of non-radioactive SAM (10 ul) to a final concentration of 600 uM, which dilutes the ^3H-SAM to a level where its incorporation into the peptide substrate is no longer detectable. 50 ul of the reaction in the 384-well polypropylene plate was then transferred to a 384-well Flashplate and the biotinylated peptides were allowed to bind to the streptavidin surface for at least 1 hour before being washed three times with 0.1% Tween20 in a Biotek ELx405 plate washer. The plates were then read in a PerkinElmer TopCount plate reader to measure the quantity of ^3H-labeled peptide bound to the Flashplate surface, measured as disintegrations per minute (dpm) or alternatively, referred to as counts per minute (cpm).
[formula] Where dpm=disintegrations per minute, cmpd=signal in assay well, and min and max are the respective minimum and maximum signal controls.
Turning to `O=C(COc1cccc(F)c1)NCC(O)CN1CCc2ccccc2C1` (stereo not drawn) [Compound 7, N-(3-(3,4-dihydroisoquinolin-2(1H)-yl)-2-hydroxypropyl)-2-(3-fluorophenoxy)acetamide], the IC50 (as a rule, the concentration that gives 50% inhibition) lay in the range of 101 to 1000 nM.

As for `Cn1cnc2ccc(NCC(=O)NCC(O)CN3CCc4ccccc4C3)cc21` (stereo not drawn) [Compound 69], the IC50 was 101 to 1000 nM.

On to `O=C(COc1ccccc1N1CCOCC1)NC[C@@H](O)CN1CCc2ccccc2C1` [Compound 78], for which the IC50 is 101 to 1000 nM.

Regarding `CC(C)(Oc1ccccc1)C(=O)NCC(O)CN1CCc2ccccc2C1` (stereo not drawn) [Compound 25, N-(3-(3,4-dihydroisoquinolin-2(1H)-yl)-2-hydroxypropyl)-2-methyl-2-phenoxypropanamide], the IC50 is 101 to 1000 nM.

For `Cn1ccnc1-c1ccccc1OCC(=O)NCC(O)CN1CCc2ccccc2C1` (stereo not drawn) [Compound 138], the IC50 lay within 101 to 1000 nM.

`O=C(CNc1ccccc1)NCC(O)CN1CCc2ccccc2C1` (stereo not drawn) [Compound 18]: the IC50 was in the range of 1000 to 10000 nM.

Consider `O=C(COc1ccccc1)NC[C@@H](O)CN1CCc2ccccc2C1` [Compound 33], for which the IC50 lay within 1000 to 10000 nM.

Consider `O=C(COc1ccccc1OCCN1CCOCC1)NC[C@@H](O)CN1CCc2ccccc2C1` [Compound 87], for which the IC50 was 1000 to 10000 nM.

`NS(=O)(=O)c1cccc(OCC(=O)NCC(O)CN2CCc3ccccc3C2)c1` (stereo not drawn) [Compound 131]: the IC50 is 1000 to 10000 nM.

Consider `CN(CC(O)CN1CCc2ccccc2C1)C(=O)CCc1ccccc1` (stereo not drawn) [Compound 3], for which the IC50 is 1000 to 10000 nM.

As for `O=C(Cc1cccc2cccnc12)NCC(O)CN1CCc2ccccc2C1` (stereo not drawn) [Compound 60, N-(3-(3,4-dihydroisoquinolin-2(1H)-yl)-2-hydroxypropyl)-2-(quinolin-8-yl)acetamide], the IC50 was in the range of 101 to 1000 nM.

Take `CN1CC(c2ccccc2OCC(=O)NCC(O)CN2CCc3ccccc3C2)C1` (stereo not drawn) [Compound 135]: the IC50 fell in the range of 1000 to 10000 nM.

In the case of `CN(C)c1ccc2cccc(OCC(=O)NC[C@H](O)CN3CCc4ccccc4C3)c2n1` [Compound 104], the IC50 is 101 to 1000 nM.

Take `CN(C)c1ccc(OCC(=O)NCC(O)CN2CCc3ccccc3C2)cc1` (stereo not drawn) [Compound 35]: the IC50 was in the range of 101 to 1000 nM.

Take `O=C(CCc1ccccc1)NCC(O)CN1CCc2ccccc2C1` (stereo not drawn) [Compound 2]: the IC50 lay within 1000 to 10000 nM.

On to `COc1ccc2cccc(OCC(=O)NC[C@H](O)CN3CCc4ccccc4C3)c2n1` [Compound 97], for which the IC50 was 101 to 1000 nM.

`CN1CCCc2c(OCC(=O)NCC(O)CN3CCc4ccccc4C3)cccc21` (stereo not drawn) [Compound 151]: the half-inhibitory concentration (IC50) lay within 101 to 1000 nM.

As for `Cn1nccc1-c1cccc(CC(=O)NCC(O)CN2CCc3ccccc3C2)c1` (stereo not drawn) [Compound 54, N-(3-(3,4-dihydroisoquinolin-2(1H)-yl)-2-hydroxypropyl)-2-(3-(1-methyl-1H-pyrazol-5-yl)phenyl)acetamide], the IC50 lay in the range of 101 to 1000 nM.

Turning to `CN(C)CCOc1ccccc1OCC(=O)NC[C@@H](O)CN1CCc2ccccc2C1` [Compound 89], the IC50 was 101 to 1000 nM.

Consider `O=C(COc1ccccc1C1CCNC1)NCC(O)CN1CCc2ccccc2C1` (stereo not drawn) [Compound 116], for which the IC50 was in the range of 1000 to 10000 nM.

Take `O=C(CC1CCCCC1)NC[C@@H](O)CN1CCc2ccccc2C1` [Compound 58]: the IC50 was 10000 to 50000 nM.

Take `O=C(Cc1ccccc1)NC[C@@H](O)CN1CCc2ccccc2C1` [Compound 57]: the IC50 fell in the range of 10000 to 50000 nM.

Consider `COc1ccc(OCC(=O)NCC(O)CN2CCc3ccccc3C2)cc1` (stereo not drawn) [Compound 12, N-(3-(3,4-dihydroisoquinolin-2(1H)-yl)-2-hydroxypropyl)-2-(4-methoxyphenoxy)acetamide], for which the IC50 was in the range of 101 to 1000 nM.

As to `CN(CC(O)CN1CCc2ccccc2C1)C(=O)COc1ccccc1` (stereo not drawn) [Compound 5], the IC50 lay in the range of 10000 to 50000 nM.

For the compound `O=C(COCc1cccnc1)NCC(O)CN1CCc2ccccc2C1` (stereo not drawn) [Compound 152, N-(3-(3,4-dihydroisoquinolin-2(1H)-yl)-2-hydroxypropyl)-2-(pyridin-3-ylmethoxy)acetamide], the IC50 fell in the range of 1000 to 10000 nM.

For `Cn1cc2c(OCC(=O)NCC(O)CN3CCc4ccccc4C3)cccc2n1` (stereo not drawn) [Compound 118], the IC50 lay within 101 to 1000 nM.

In the case of `C[C@H](Oc1cccc2cccnc12)C(=O)NC[C@@H](O)CN1CCc2ccccc2C1` [Compound 72], the IC50 was 1000 to 10000 nM.

For `O=C(COc1cccc2cccnc12)NC[C@H](O)CN1CCc2ccccc2C1` [Compound 44, (S)—N-(3-(3,4-dihydroisoquinolin-2(1H)-yl)-2-hydroxypropyl)-2-(quinolin-8-yloxy)acetamide], the IC50 was in the range of 101 to 1000 nM.

`O=C(COc1ccc(F)cc1)NCC(O)CN1CCc2ccccc2C1` (stereo not drawn) [Compound 10]: the IC50 was 1000 to 10000 nM.

In the case of `CN(C)C(=O)c1ccccc1OCC(=O)NCC(O)CN1CCc2ccccc2C1` (stereo not drawn) [Compound 113], the IC50 fell in the range of 101 to 1000 nM.

Take `O=C(COc1ccccc1)NCC(O)CN1CCc2ccccc2C1` (stereo not drawn) [Compound 1, N-(3-(3,4-dihydroisoquinolin-2(1H)-yl)-2-hydroxypropyl)-2-phenoxyacetamide]: the IC50 is 101 to 1000 nM.

As to `CN(C)c1ncccc1OCC(=O)NCC(O)CN1CCc2ccccc2C1` (stereo not drawn) [Compound 127], the IC50 fell in the range of 101 to 1000 nM.

Take `O=C(Cc1ccccc1)NC[C@H](O)CN1CCc2ccccc2C1` [Compound 55]: the IC50 was in the range of 101 to 1000 nM.

Consider `O=C(COc1cccc(C(=O)N2CCOCC2)c1)NCC(O)CN1CCc2ccccc2C1` (stereo not drawn) [Compound 83], for which the IC50 was in the range of 101 to 1000 nM.

`CN1CCC(c2ccccc2OCC(=O)NCC(O)CN2CCc3ccccc3C2)CC1` (stereo not drawn) [Compound 134]: the IC50 is 101 to 1000 nM.

`CC(=O)N1CCN(S(=O)(=O)c2ccccc2OCC(=O)NCC(O)CN2CCc3ccccc3C2)CC1` (stereo not drawn) [Compound 122]: the IC50 lay within 101 to 1000 nM.

`CS(=O)(=O)Nc1cccnc1OCC(=O)NCC(O)CN1CCc2ccccc2C1` (stereo not drawn) [Compound 140]: the IC50 lay within 1000 to 10000 nM.

In the case of `Cc1ccc(OCC(=O)NCC(O)CN2CCc3ccccc3C2)cc1` (stereo not drawn) [Compound 9, N-(3-(3,4-dihydroisoquinolin-2(1H)-yl)-2-hydroxypropyl)-2-(p-tolyloxy)acetamide], the IC50 fell in the range of 101 to 1000 nM.

For the compound `NC(=O)c1ccccc1OCC(=O)NCC(O)CN1CCc2ccccc2C1` (stereo not drawn) [Compound 29], the IC50 fell in the range of 101 to 1000 nM.

Turning to `Nc1ncccc1OCC(=O)NCC(O)CN1CCc2ccccc2C1` (stereo not drawn) [Compound 145], the IC50 was in the range of 1000 to 10000 nM.

`O=C(COc1cccc(NC2CCOCC2)n1)NCC(O)CN1CCc2ccccc2C1` (stereo not drawn) [Compound 121]: the 50% inhibitory concentration (IC50) is 1000 to 10000 nM.

As to `CC(C)(C)OC(=O)Nc1ccccc1OCC(=O)NCC(O)CN1CCc2ccccc2C1` (stereo not drawn) [Compound 141], the IC50 was in the range of 1000 to 10000 nM.

Turning to `CS(=O)(=O)c1ccc(OCC(=O)NCC(O)CN2CCc3ccccc3C2)cc1` (stereo not drawn) [Compound 14], the IC50 lay within 1000 to 10000 nM.

For the compound `O=C(COc1ccccc1F)NCC(O)CN1CCc2ccccc2C1` (stereo not drawn) [Compound 16], the IC50 was 101 to 1000 nM.

As to `Cn1cnc2cc(OCC(=O)NCC(O)CN3CCc4ccccc4C3)ccc21` (stereo not drawn) [Compound 46, N-(3-(3,4-dihydroisoquinolin-2(1H)-yl)-2-hydroxypropyl)-2-((1-methyl-1H-benzo[d]imidazol-5-yl)oxy)acetamide], the IC50 is 101 to 1000 nM.

Regarding `CNC(=O)c1ccccc1OCC(=O)NCC(O)CN1CCc2ccccc2C1` (stereo not drawn) [Compound 112], the 50% inhibitory concentration (IC50) is 101 to 1000 nM.

As for `O=C(COc1cccc2c1OCC(=O)N2)NCC(O)CN1CCc2ccccc2C1` (stereo not drawn) [Compound 124], the IC50 lay within 1000 to 10000 nM.

In the case of `O=C(COC1CCOCC1)NCC(O)CN1CCc2ccccc2C1` (stereo not drawn) [Compound 41], the IC50 was in the range of 1000 to 10000 nM.
